Measurements reported in patent EP0449026A2, “Desoxynojirimycin derivatives, process for their preparation and their use in drugs” (BAYER AG, priority 1990, dated 1991).
In brackets after ≈: the same amount, converted by molar mass.

These molecules were tested on Visna-Virus (assay: Visna virus test: inhibition of the virus-induced cytopathic effect in infected sheep fibroblast cultures). Details: Visna-maedi virus, Fibroblastenzellen vom Schaf, MOI ca. 0,05, 7 Tage bei 37°C 5% CO₂, concentration at which the cytopathic effect is inhibited by 50%, read microscopically.
Type: cell-based
Excerpt: In Zellkulturen, die mit Visna-Virus infiziert sind, treten 5 bis 10 Tage nach der Infektion ausgeprägte virusinduzierte, zytopathische Effekte auf. Durch Behandlung der infizierten Zellkulturen mit den erfindungsgemäßen Verbindungen konnte das Auftreten dieser zytopathischen Effekte verhindert werden.
Der Visna-Virus-Test wurde nach der Methode von O. Narayan et al., Journal of Infectious Diseases 135, 5, 1977, 800 - 806 durchgeführt. Dazu wurden die erfindungsgemäßen Verbindungen im Kulturmedium in nicht zytotoxischen Konzentrationen in 96er Microtiterplatten verdünnt. Anschließend wurden Fibroblastenzellen vom Schaf (5 x 10⁴ Zellen pro Napf) in Produktionsmedium zu jedem Näpfchen zugeführt. Jedes Näpfchen erhielt dann 50 µl einer Visna-Viruslösung mit einer Titer von ca. […] TCID₅₀ (TCID = tissue culture infectious dosis). Diese Virusdosis entspricht einer MOI (Multiplizität der Infektion) von ca. 0,05.
Unter diesen Infektionsbedingungen resultierte zwischen Tag 5 und Tag 10 in einer Infektionskontrolle ohne Substanz ein virusinduzierter, zytopathischer Effekt. Die infizierten und behandelten Zellen und die Kontrollzellen wurden 7 Tage bei 37°C 5% CO₂ inkubiert.
Bei Auftreten des virusinduzierten zytopathogenen Effektes in der unbehandelten Viruskontrolle wurden die Kulturen mit Formalin fixiert und anschließend mit einer Giemsa-Lösung gefärbt. Die inhibitorische Konzentration (IC₅₀) wurde mikroskopisch als die Konzentration ermittelt, bei der der zytopathische Effekt um 50% gehemmt wurde: im Vergleich zur unbehandelten Viruskontrolle, die 100% Zellzerstörung aufwies.
CC=CCN1CC(OC(=O)CC(C)C)C(OC(=O)CC(C)C)C(O)C1CO (stereo not drawn) [Beispiel 10] was tested, and the IC50 was 20 µg/mL (≈ 51.9 µM).
Molecule CC=CCN1CC(OC(C)=O)C(OC(C)=O)C(O)C1CO (stereo not drawn) [Beispiel 6] has an IC50 of 12.5 µg/mL (≈ 41.5 µM).
Molecule CC=CCN1CC(OC(=O)c2ccccc2)C(OC(=O)c2ccccc2)C(O)C1CO (stereo not drawn) [Beispiel 3, N-Butenyl-2,3-dibenzoyl-desoxynojirimycin] has an IC50 of 50 µg/mL (≈ 118 µM).
